Consider 22 compounds from ChEMBL document CHEMBL5385849, “Discovery of 1-hydroxy-2-methylquinolin-4(1H)-one derivatives as new cytochrome bd oxidase inhibitors for tuberculosis therapy” (Eur J Med Chem, 2023).

Structures are written as SMILES. Converted amounts (≈) assume the structure as drawn. The source made the active and inactive calls. No cut-off for these calls is given here. Where only a bound is given, the exact number is not on record here.

For assay [1], the system named is Mycolicibacterium smegmatis. Description: Antimycobacterial activity against Mycobacterium smegmatis harboring deltaqcrCAB mutant assessed as reduction in bacterial growth incubated for 24 hrs by resazurin dye based analysis. The assay is classed as functional. For orientation: Alamar Blue is a resazurin reagent that responds to reducing activity.
The test system of assay [2] is Mycolicibacterium smegmatis. Description: Antimycobacterial activity against wild type Mycobacterium smegmatis MC2155 assessed as reduction in bacterial growth incubated for 24 hrs by resazurin dye based analysis. The assay is classed as functional.
The nature of assay [3]: Binding affinity to C-terminal his-tagged Mycobacterium tuberculosis Cytochrome bd oxidase assessed as dissociation constant incubated for 5 to 10 mins by MST assay.
The subject of assay [4] is Mycolicibacterium smegmatis. Briefly: Inhibition of C-terminal his-tagged wild type Mycobacterium smegmatis MC2155 cytochrome bd oxidase assessed as reduction in oxygen consumption at 5 uM measured upto 4 days by Methylene blue dye based assay. The conditions noted are these: time <= 4.0 day.
Assay [5] deals with Mycolicibacterium smegmatis. Briefly: Inhibition of C-terminal his-tagged wild type Mycobacterium smegmatis MC2155 cytochrome bd oxidase assessed as reduction in oxygen consumption at 5 uM measured upto 4 days in presence of Aurachin D by Methylene blue dye based assay. The conditions noted are these: time <= 4.0 day.
Assay [6] has as its system Mycolicibacterium smegmatis. Briefly: Inhibition of C-terminal his-tagged wild type Mycobacterium smegmatis MC2155 cytochrome bd oxidase assessed as reduction in oxygen consumption at 25 uM measured upto 4 days by Methylene blue dye based assay. The conditions noted are these: time <= 4.0 day.
In assay [7] the test system is Mycolicibacterium smegmatis. Description: Antimycobacterial activity against Mycobacterium smegmatis harboring deltaqcrCAB mutant assessed as reduction in bacterial growth incubated for 2 days by resazurin dye based analysis. The conditions noted are these: 48 h, time 2 day. The assay is classed as functional.
The test system of assay [8] is Mycolicibacterium smegmatis. Description: Inhibition of C-terminal his-tagged Mycobacterium smegmatis harboring […] mutant inverted-membrane vesicle cytochrome bd oxidase assessed as reduction in oxygen consumption rate at 10 uM measured upto 4 days by Methylene blue dye based assay. Type of assay: cell membranes. Conditions: time <= 4.0 day.
In assay [9] the test system is Mycolicibacterium smegmatis. Description: Inhibition of C-terminal his-tagged wild type Mycobacterium smegmatis inverted-membrane vesicle cytochrome bd oxidase assessed as reduction in oxygen consumption rate at 10 uM measured upto 4 days by Methylene blue dye based assay. The conditions noted are these: time <= 4.0 day. The assay is classed as cell membranes.
Assay [10] has as its system Mycolicibacterium smegmatis. Briefly: Inhibition of C-terminal his-tagged Mycobacterium smegmatis harboring deltaqcrCAB mutant inverted-membrane vesicle cytochrome bd oxidase assessed as reduction in oxygen consumption rate at 10 uM measured upto 4 days by Methylene blue dye based assay. The assay is classed as cell membranes. Conditions: time <= 4.0 day.
Assay [11] has as its system Mycolicibacterium smegmatis. Description: Inhibition of C-terminal his-tagged wild type Mycobacterium smegmatis MC2155 cytochrome bd oxidase assessed as reduction in oxygen consumption at 25 uM measured upto 4 days in presence of 6-chloro-2-ethyl-N-(4-(4-(4-(trifluoromethoxy)phenyl)piperidin-1-yl)benzyl)imidazo[1,2-a]pyridine-3-carboxamide by Methylene blue dye based assay. The conditions noted are these: time <= 4.0 day.

In the case of `Cc1c(Cc2ccccc2Cl)c(=O)c2ccccc2n1O`, the minimal inhibitory concentration (MIC) – broadly, the lowest concentration found to suppress growth – was 50 µM (≈ 15 µg/mL) in assay [1] and over 400 µM in assay [2].

With `Cc1c(Cc2ccc(Br)cc2)c(=O)c2ccccc2n1O`, the minimal inhibitory concentration (MIC) in [1] is 6.25 µM (≈ 2.15 µg/mL); in [2], over 400 µM.

Consider `Cc1c(Cc2ccc(N3CCN(C)CC3)cc2)c(=O)c2ccccc2n1O`, for which the minimal inhibitory concentration (MIC) in assay [1] and in [2] was over 400 µM throughout.

As for `Cc1ccccc1Cc1c(C)n(O)c2ccccc2c1=O`, the MIC in assay [1] is 25 µM (≈ 6.98 µg/mL); in [2], over 400 µM.

As to `Cc1c(Cc2ccccc2)c(=O)c2ccccc2n1O`, the minimal inhibitory concentration (MIC) is 50 µM (≈ 13.3 µg/mL) in assay [1] and over 400 µM in assay [2].

With `CC(C)(C)c1cc(C(C)(C)C)c(NC(=O)c2c[nH]c3ccccc3c2=O)cc1O` [IVACAFTOR], in [3], the Kd (in general, the constant that tells how readily two partners part at equilibrium) is 40 µM. Besides, the MIC in assay [1] amounted to 51 µM (≈ 20 µg/mL).

On to `Cc1c(Cc2ccc(N3CCN(c4ccc(OC(F)(F)F)cc4)CC3)cc2)c(=O)c2ccccc2n1O`, for which the minimal inhibitory concentration (MIC) in assay [1] is 100 µM (≈ 51 µg/mL); in assay [2] it was over 400 µM.

On to `COc1ccccc1Cc1c(C)n(O)c2ccccc2c1=O`, for which the MIC in [1] was 25 µM (≈ 7.38 µg/mL); in assay [2], over 400 µM.

On to `Cc1c(Cc2ccc(Cl)cc2)c(=O)c2ccccc2n1O`, for which the minimal inhibitory concentration (MIC) in assay [1] was 6.25 µM (≈ 1.87 µg/mL); in [2], over 400 µM.

`CCc1nc2ccc(Cl)cn2c1C(=O)NCc1ccc(N2CCC(c3ccc(OC(F)(F)F)cc3)CC2)cc1`: the inhibition (commonly how much of the control response was suppressed) in assay [4] is “inactive”. In addition, in assay [5], the inhibition result is “Active”.

In the case of `Cc1c(Cc2ccccc2F)c(=O)c2ccccc2n1O`, the MIC is 50 µM (≈ 14.2 µg/mL) in [1] and over 400 µM in assay [2].

As to `CCc1ccccc1Cc1c(C)n(O)c2ccccc2c1=O`, the minimal inhibitory concentration (MIC) in [1] was 50 µM (≈ 14.7 µg/mL); in assay [2], over 400 µM.

With `Cc1c(Cc2ccc(I)cc2)c(=O)c2ccccc2n1O`, the MIC was 12.5 µM (≈ 4.89 µg/mL) in [1] and over 400 µM in [2].

For `Cc1c(-c2cnn(Cc3ccc(OC(F)(F)F)cc3)c2)c(=O)c2ccccc2n1O`, the MIC in assay [1] and in assay [2] was over 400 µM each time.

With `CN(C(=O)c1c(O)c2ccccc2n(C)c1=O)c1ccccc1` [ROQUINIMEX], in assay [3], the dissociation constant Kd is 13 µM. The MIC in assay [1] was found to be 260 µM (≈ 80.2 µg/mL).

On to `CC(C)=CCC/C(C)=C/CC/C(C)=C/Cc1c(C)[nH]c2ccccc2c1=O` [AURACHIN D], for which the inhibition entry in [6] was “inactive”. Further, the MIC in [1] was 6.25 µM (≈ 2.27 µg/mL).

Regarding `Cc1[nH]c2ccccc2c(=O)c1-c1cnn(Cc2ccc(OC(F)(F)F)cc2)c1`, the minimal inhibitory concentration (MIC) in assay [1] and in assay [2] was over 400 µM each time.

With `Cc1c(Cc2ccccc2C(F)(F)F)c(=O)c2ccccc2n1O`, the minimum inhibitory concentration (MIC) in [1] is 50 µM (≈ 16.7 µg/mL); in assay [2], over 400 µM.

As for `Cc1c(Cc2ccccc2OC(F)(F)F)c(=O)c2ccccc2n1O`, the equilibrium dissociation constant (Kd) in assay [3] is 165 µM. For the same compound, the MIC was 6.25 µM (≈ 2.18 µg/mL) in assay [7], 3.1 µM (≈ 1.08 µg/mL) in assay [1] and over 400 µM in [2].

As to `Cc1[nH]c2ccccc2c(=O)c1Cc1ccc(OC(F)(F)F)cc1`, the figures for the MIC in assay [1] and in assay [2] were 50 µM (≈ 16.7 µg/mL) and over 400 µM, respectively.

For `Cc1c(Cc2ccc(OC(F)(F)F)cc2)c(=O)c2ccccc2n1O`, the inhibition result in [8] and in assay [6] was “inactive” in each case. Also, the inhibition in assay [9] came out at 74%; in assay [10] it was 86%. Moreover, in assay [3], the dissociation constant Kd amounted to 4.17 µM. Further, the MIC in assay [7] is 6.25 µM (≈ 2.18 µg/mL); in [1], 6.25 µM (≈ 2.18 µg/mL); in assay [2], over 400 µM. Also, the inhibition entry in assay [11] is “Active”.

With `Cc1c(Cc2ccccc2Br)c(=O)c2ccccc2n1O`, the figures for the MIC in assay [1] and in [2] were 50 µM (≈ 17.2 µg/mL) and over 400 µM, respectively.
